According to patent US20110237612A1, “Thienylamino pyrimidines for use as Fungicides” (BayerCropScience AG, priority 2008, published 2011):
Like-named read-outs stand apart in the source and are kept apart here.

Legend:
[1] = for logp [b]: pH 2.7; for logp [c]: pH 7.8; for logp [a]: pH 2.3
[2] = system: Production of Fumonisin FB1 by Fusarium Proliferatum; assay: Production of fumonisin FB1 by Fusarium proliferatum; assay type: cell-based; details: FB1 concentration by HPLC-MS/MS after 6 days at 20° C.
Fusarium proliferatum = assay: Growth of Fusarium proliferatum (OD620) in the fumonisin test; assay type: cell-based; details: OD620 at the beginning and after 6 days
[3] = logP determination by HPLC on reversed-phase columns (EEC directive 79/831 Annex V.A8); details: for logp [a] / logp [b]: acidic range; for logp [a]: pH 2.3, 0.1% aqueous phosphoric acid and acetonitrile; for logp [b] / logp [c]: LC-MS; for logp [b]: pH 2.7, 0.1% aqueous formic acid and acetonitrile; for logp [c]: neutral range, pH 7.8, 0.001 molar aqueous ammonium bicarbonate and acetonitrile
Gibberella zeae = details: in vivo
physchem = details: pH 2.3

SMILES	logp [b] [1]	logp [c] [1]	also measured
O=C(NO)c1cc(Nc2ncc(Cl)c(NC3CC3)n2)cs1 [Example 25]	2.1[b]	2.96[c];	
COC(=O)c1cc(Nc2ncc(Cl)c(NC3CC3)n2)cs1 [Example 5, 5-Chloro-N^4-cyclopropyl-N^2-2-methoxycarbonylthiophen-4-yl-2,4-diamine]			pI50 Fum [2]: 5.3; pI50 growth (Fusarium proliferatum): 4.4; logp [a] [3]: 1.68[a]; logP (pH 2.3) [3]: 1.68
COCCNC(=O)c1cc(Nc2ncc(Cl)c(NC3CC3)n2)cs1 [Example 23]	1.38[b]	2.01[c];	
FC(F)CNc1nc(Nc2ccsc2)ncc1Cl [Example 31]	1.88[b]	2.72[c];	
O=C(c1cc(Nc2ncc(Cl)c(NC3CC3)n2)cs1)N1CCCCC1 [Example 7]			logp [a] [1]: 1.68[a]
CN(CC1CC1)C(=O)c1cc(Nc2ncc(Cl)c(NC3CC3)n2)cs1 [Example 38]	2.08[b]	2.86[c];	
Brc1cnc(Nc2ccsc2)nc1NC1CCC1 [Example 3]	2.12[b]		
Clc1cnc(Nc2ccsc2)nc1NC1CC1 [Example 1]	1.63[b]		
CC(C)N(C)C(=O)c1cc(Nc2ncc(Cl)c(NC3CC3)n2)cs1 [Example 8]			logp [a] [1]: 1.6[a]
N#Cc1csc(Nc2ncc(Cl)c(NC3CC3)n2)c1 [Example 12]			logp [a] [1]: 2.55[a]
FC(F)(F)c1cnc(Nc2ccsc2)nc1NC1CC1 [Example 2]	2.69[b]		efficacy (Gibberella zeae): ≥ 80%
O=c1[nH]c(Nc2ccsc2)ncc1Cl [IX-1, 2-(Thiophen-3-ylamino)-5-chloropyrimidin-4(3H)-one]			chromatographic logP (physchem): 1.38
Cc1ccc(Nc2ncc(Cl)c(NC3CC3)n2)s1 [Example 26, 5-Chloro-N^4-cyclopropyl-N^2-2-methylthiophen-5-yl-2,4-diamine]			logp [b] [3]: 2.09[b]; logp [c] [3]: 3.20[c];; logP (pH 2.3) [3]: 2.09
CC1CC1Nc1nc(Nc2ccsc2)ncc1Cl (mixture of isomers) [Example 17]			logp [a] [1]: 1.97[a]
FC(F)CNc1nc(Nc2ccsc2)ncc1Br [Example 30]	1.99[b]	2.83[c];	
Clc1cnc(Nc2ccsc2)nc1NCC1CC1 [Example 32]	2.33[b]	3.31[c];	
Clc1ccc(Nc2ncc(Cl)c(NC3CC3)n2)s1 [Example 43]		3.54[c];	
CC(=O)c1ccc(Nc2ncc(Cl)c(NC3CC3)n2)s1 [Example 10, N^4-Cyclopropyl-N^2-2-acetylthiophen-5-yl-5-(chloro)pyrimidine-2,4-diamine]			chromatographic logP (physchem): 1.87
Cc1ccc(NC(=O)OC(C)(C)C)s1 [2-(N-tert-Butoxycarbonylamino)-5-methylthiophene]			chromatographic logP (physchem): 2.89
Cc1ccc(Nc2ncc(C(F)(F)F)c(NC3CC3)n2)s1 [Example 36]	3.22[b]	3.56[c];	
CC(C)Nc1nc(Nc2ccsc2)ncc1Br [Example 28]	1.85[b]	3.43[c];	
Brc1cnc(Nc2ccsc2)nc1NC1CC1 [Example 4]	1.71[b]		

SMILES	logp [b] [1]	logp [c] [1]	also measured
CC(=O)c1ccc(N)s1 [1-(5-Amino-2-thienyl)ethanone]			chromatographic logP (physchem): 0.42
CC(C)Nc1nc(Nc2ccsc2)ncc1Cl [Example 27]	1.66[b]	3.28[c];	
CCN(CC)C(=S)c1cc(Nc2ncc(Cl)c(NC3CC3)n2)cs1 [Example 40]	2.55[b]	3.51[c];	
Clc1cnc(Nc2ccsc2)nc1Cl [Example X-1, 4,5-Dichloro-N-(3-thienyl)pyrimidin-2-amine]			chromatographic logP (physchem): 3.55
CCN(CC)C(=O)c1cc(Nc2ncc(Cl)c(NC3CC3)n2)cs1 [Example 9]			pI50 Fum [2]: 6.0; pI50 growth (Fusarium proliferatum): 5.5; logp [a] [1]: 1.62[a]
CS(=O)(=O)c1ccc(Nc2ncc(Cl)c(NC3CC3)n2)s1 [Example 33]	1.97[b]	2.02[c];	
S=C(c1cc(Nc2ncc(Cl)c(NC3CC3)n2)cs1)N1CCCC1 [Example 39]	2.31[b]	3.23[c];	
CSc1ccc(Nc2ncc(Br)c(NC3CC3)n2)s1 [Example 35]	3.02[b]	3.53[c];	
C=CCNC(=O)c1cc(Nc2ncc(Cl)c(NC3CC3)n2)cs1 [Example 21]		2.28[c]	
O=C(O)c1cc(Nc2ncc(Cl)c(NC3CC3)n2)cs1 [Example 37, 5-Chloro-N^4-cyclopropyl-N^2-2-hydroxycarbonylthiophen-4-yl-2,4-diamine]			logp [b] [3]: 1.30[b]; logp [c] [3]: 0.74[c];; logP (pH 2.3) [3]: 1.30
C=CCN(C)C(=O)c1cc(Nc2ncc(Cl)c(NC3CC3)n2)cs1 [Example 22]	1.89[b]	2.65[c];	
COCC(C)NC(=O)c1cc(Nc2ncc(Cl)c(NC3CC3)n2)cs1 (stereo not shown) [Example 24]	1.58[b]	2.22 [c];	
Clc1cc(Nc2ncc(Cl)c(NC3CC3)n2)cs1 [Example 41]	2.63[b]		
CC(=O)c1cc(Nc2ncc(Cl)c(NC3CC3)n2)cs1 [Example 13]			logp [a] [1]: 1.44[a]
CC(C)(C)NC(=O)c1cc(Nc2ncc(Cl)c(NC3CC3)n2)cs1 [Example 20]	2.11[b]		
Clc1cnc(Nc2ccsc2)nc1NC1CCC1 [Example 18]	1.96[b]	3.46[c];	
O=C(c1cc(Nc2ncc(Cl)c(NC3CC3)n2)cs1)N1CCOCC1 [Example 19]	1.45[b]	2.09[c];	
CSc1ccc(Nc2ncc(Cl)c(NC3CC3)n2)s1 [Example 34]	2.84[b]	3.36[c];	
FC(F)(F)CNc1nc(Nc2ccsc2)ncc1Br [Example 29]		3.50[c]	
Cc1ccc(Nc2ncc(Br)c(NC3CC3)n2)s1 [Example 44]	2.27[b]	3.35[c];	
N#Cc1cc(Nc2ncc(Cl)c(NC3CC3)n2)cs1 [Example 14]			logp [a] [1]: 2.23[a]
O=C(c1cc(Nc2ncc(Cl)c(NC3CC3)n2)cs1)N1CCCC1 [Example 6, 5-Chloro-N^4-cyclopropyl-N^2-2-pyrrolidin-1-ylcarbonylthiophen-4-yl-2,4-diamine]			pI50 Fum [2]: 5.9; pI50 growth (Fusarium proliferatum): 5.6; logp [a] [3]: 1.42[a]; logP (pH 2.3) [3]: 1.40
